These results are taken from ChEMBL document CHEMBL1138204, “Low-calcemic, highly antiproliferative, 1-difluoromethyl hybrid analogs of the natural hormone 1alpha,25-dihydroxyvitamin D3: design, synthesis, and preliminary biological evaluation” (J Med Chem, 2006).

For experiment [1], the target named is T1, Vitamin D3 receptor (Homo sapiens, UniProt P11473).
T1 sequence (P11473 whole entry): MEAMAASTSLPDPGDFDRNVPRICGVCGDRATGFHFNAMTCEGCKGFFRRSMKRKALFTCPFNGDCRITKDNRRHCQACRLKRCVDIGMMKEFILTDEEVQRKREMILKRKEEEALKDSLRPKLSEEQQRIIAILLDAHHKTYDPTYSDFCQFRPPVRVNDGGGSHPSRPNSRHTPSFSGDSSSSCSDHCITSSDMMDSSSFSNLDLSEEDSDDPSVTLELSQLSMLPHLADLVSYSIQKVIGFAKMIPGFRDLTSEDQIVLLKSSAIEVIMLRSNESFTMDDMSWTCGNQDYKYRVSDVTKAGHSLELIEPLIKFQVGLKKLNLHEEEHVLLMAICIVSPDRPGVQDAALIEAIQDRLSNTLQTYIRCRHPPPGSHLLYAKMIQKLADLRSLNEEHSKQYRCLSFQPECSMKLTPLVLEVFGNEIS
Kind of experiment: Displacement of [3H]1,25-dihydroxyvitamin D3 from human VDR by HAP assay. (In a radioligand displacement assay an active substance lowers the binding of a labelled ligand.)

The target in experiment [2] is T2, Vitamin D3 receptor (Homo sapiens) (UniProt P11473).
T2 sequence (whole entry): T1 sequence (P11473 whole entry)
Description: Stabilization of human [35S]VDR against trypsin digestion by protease assay

The target in experiment [3] is T2, Vitamin D3 receptor (Homo sapiens). Conditions: CV-1.
Description: Activity on human VDR-mediated transcription of osteocalcin VDRE fused to thymidine kinase promoter/growth hormone reporter gene in CV1 cells
Experiment [4] is described as follows: Antiproliferative activity against murine keratinocytes. Type of experiment: functional. The conditions noted are these: Mus musculus, Keratinocyte; read-out: ED50 (the source's name).
The species named for experiment [5] is Rattus norvegicus. Description: Calcemic activity in Sprague-Dawley rat measured as urinary calcium excretion relative to calcitriol. Type of experiment: functional, Urine.

SMILES strings stand for the structures.

As a reminder, the IC50 is the point on the concentration scale where inhibition reaches its midpoint. High values mean a need for much substance, low ones inhibition by little substance.

Take `C=C1/C(=C\C=C2/CCC[C@]3(C)[C@@H]([C@@H](C)OCCCC(O)(CC)CC)CC[C@@H]23)C[C@@H](O)C[C@@H]1C(F)F`: the half-maximal inhibitory concentration (IC50) in experiment [1] stood at 19.5 nM. The ED50 worked out at 100 nM in experiment [2] and 3 nM in experiment [3]. In addition, in experiment [4], the EC50 was 7 nM. In addition, the Activity in experiment [5] is 5%.

In the case of `C=C1/C(=C\C=C2/CCC[C@]3(C)[C@@H]([C@H](C)CCCC(C)(C)O)CC[C@@H]23)C[C@@H](O)C[C@@H]1C(F)F`, the IC50 in experiment [1] is 30 nM. Moreover, the ED50 in experiment [2] stood at 500 nM; in experiment [3], 390 nM. For the same compound, the EC50 in experiment [4] amounted to 150 nM.

Turning to `C=C1/C(=C\C=C2/CCC[C@]3(C)C([C@H](C)CCC(F)(F)C(O)(CC)CC)=CC[C@@H]23)C[C@@H](O)C[C@@H]1C(F)F`, the IC50 in experiment [1] was found to be 50 nM. Besides, the ED50 stood at 4 nM in experiment [2] and 0.6 nM in experiment [3]. For the same compound, the EC50 in experiment [4] came to 2 nM. Further, the Activity in experiment [5] is recorded as 16%.
